The subject of data set [1] is intracellular proteins. Description: Identification of intracellular proteins that bind HQ5 (lysate incubated with dye). Type of data set: binding. The conditions noted are these: lysate incubated with HQ5 and CW800. How it is done:
FIG. 12 relates to identification of intracellular proteins that bind HQ5. In order to try to identify the protein to which the HQ-dyes bind Lysate is (after pre-treatment) incubated with HQ5 and CW800. Exact protocol and technique not specified. […] A specific HQ5-binding protein has a molecular weight of approx. 40 kD.

Data set [2] deals with 4T1-Luc cells. Description: Dry ice assay: binding to dead cells or uptake by living cells. Type of data set: cell-based, mouse. Conditions: dry-ice killed 4T1-Luc cells in the center of the wells, 15 min at 37° C. The protocol:
4T1-Luc cells were seeded onto individual wells from a 12-well cell culture plate and allowed to grow to confluence in RPMI media supplemented with 10% fetal bovine serum. 4T1-luc2 mouse breast cancer cells were used as the adherence of these cells to the bottom of the culture well remains strong after dry-ice treatment. To initiate cryo-induced cell death, media was discarded and dry-ice was applied to the bottom center of each individual well for 15 sec. Subsequently, fresh medium with different concentrations of the first compound of the invention were added and cells were incubated at 37° C. for 15 min. After incubation, the media were discarded and the cells were washed twice with serum free medium and 0.5 ml fresh RPMI was added to each well. Cells were then visualized using a Licor Odyssey equipped with 700 and 800 nm diode laser. Luciferin ([…]) was also added to each well and fluorescence and bioluminescence images were acquired using an IVIS Spectrum (fluorescence: excitation filter: 710 nm, emission filter: 820 nm, exposure time: 90 s, bin: 8, f/stop: 2, field of view: 12.9 cm) (bioluminescence: open filter, exposure time: 30 s, bin: 8, f/stop: 1, field of view: 12.9 cm). Some culture wells were also stained for 15 min with Trypan Blue (0.2% in culture medium) to confirm cell death.

For data set [3], the system named is injured tissues. The conditions noted are these: Prajapati et al., Mol Imaging 2009; cited from earlier work.
The test system of data set [4] is 4T1 cells. Description: Confocal microscopy of Gambogic acid treated 4T1 cells. Type of data set: cell-based, mouse. The source says: Gambogic acid kills cells leading to membrane disruption. […] Annexin-V-FITC specifically binds to phosphatidyl serine (PS) expressed on the outside of the cell membrane of apoptotic and necrotic cells.
Annexin V, however, can next to late apoptotic and necrotic cells also stain cells in an early stage of apoptosis.

As for `CC1(C)C(/C=C/C2=C(Oc3ccc(S(=O)(=O)O)cc3)C(=C/C=C3/N(CCCCS(=O)(=O)O)c4ccc(S(=O)(=O)[O-])cc4C3(C)C)/CCC2)=[N+](CCCCCC(=O)O)c2ccc(S(=O)(=O)O)cc21` [CW800], the “proteins bound, HQ5 compared with CW800” value in data set [1] was “share some but also have different proteins they bind with”. Moreover, in data set [2], the “binding to dead cells” value was “specifically and dose-dependently bind to dead cells”.

Consider `CC1(C)C(=CC=C2CCCC(C=CC3=[N+](CCCCS(=O)(=O)[O-])c4ccc5ccccc5c4C3(C)C)=C2Cl)N(CCCCS(=O)(=O)[O-])c2ccc3ccccc3c21.[Na+]` [IR-820], for which, in data set [3], the blood pool behaviour result was “is a blood pool agent that just simply leaks out of blood vessels after disruption of the vessels”.

B1: Annexin V: binds phosphatidyl serine on the outside of the membrane of apoptotic and necrotic cells (protein, UniProt P08758 2-320, looked up)
Annexin A5: AQVLRGTVTDFPGFDERADAETLRKAMKGLGTDEESILTLLTSRSNAQRQEISAAFKTLFGRDLLDDLKSELTGKFEKLIVALMKPSRLYDAYELKHALKGAGTNEKVLTEIIASRTPEELRAIKQVYEEEYGSSLEDDVVGDTSGYYQRMLVVLLQANRDPDAGIDEAQVEQDAQALFQAGELKWGTDEEKFITIFGTRSVSHLRKVFDKYMTISGFQIEETIDRETSGNLEQLLLAVVKSIRSIPAYLAETLYYAMKGAGTDDHTLIRVMVSRSEIDLFNIRKEFRKNFATSLYSMIKGDTSGDYKKALLLLCGEDD
modifications: FITC label
Consider B1, for which the “number of cells stained” value in data set [4] was “stains a larger number of cells than both HQ5 and EtD”.

These data come from US10641771B2, “Protein target complex” (HQ Medical Netherlands B.V., priority 2012, dated 2020).
